ChEMBL document CHEMBL1153031, “Evaluation of anti-inflammatory effect of synthetic 1,5-bis(4-acetoxy-3-methoxyphenyl)-1,4-pentadien-3-one, HB2” (Bioorg Med Chem, 2009)
Calls of active or inactive are those of the source. The rule behind the calls is not given here.

Experiments:
Mus musculus [1] = test: Antiinflammatory activity against carrageenan-induced paw oedema in mouse at 10 mg/kg, ip treated 30 mins before carrageenan challenge measured after 6 hrs by plethysmometry analysis; assay type: functional; settings: route intraperitoneal
Mus musculus [2] = test: Neurotoxicity in mouse assessed as depression activity at 10 mg/kg, ip treated 15 mins before test measured after 60 seconds by rotarod test; assay type: toxicity, organism-based; parameters: dose 10 mg/kg, route intraperitoneal; settings: in vivo, 0.25 h
Mus musculus [3] = test: Neurotoxicity in mouse assessed as depression activity at 1 mg/kg, ip administered 15 mins before test measured after 60 seconds by rotarod test; assay type: toxicity, organism-based; parameters: dose 1 mg/kg, route intraperitoneal; settings: in vivo, 0.25 h
RAW264.7 [4] = test: Antiinflammatory activity in mouse RAW264.7 cells assessed as inhibition of LPS-induced PGE2 production at 100 uM after 24 hrs by enzyme immunoassay; assay type: functional; settings: RAW264.7, 24 h
Mus musculus [5] = test: Antiinflammatory activity against carrageenan-induced paw oedema in mouse at 10 mg/kg, ip treated 30 mins before carrageenan challenge measured after 4 hrs by plethysmometry analysis; assay type: functional; settings: route intraperitoneal
Mus musculus [6] = test: Antiinflammatory activity in mouse assessed as neutrophil population in peritoneal exudate during carrageenan-induced inflammation at 0.1 mg/kg, ip administered 30 mins before carrageenan challenge measured after 4 hrs by myeloperoxidase activity assay; assay type: functional; settings: route intraperitoneal
Mus musculus [7] = test: Antiinflammatory activity in mouse assessed as reduction in total cell count in peritoneal exudate during carrageenan-induced inflammation at 10 mg/kg, ip administered 30 mins before carrageenan challenge measured after 4 hrs; assay type: functional; parameters: scale not given: the % may be the effect or the level left; settings: route intraperitoneal
Mus musculus [8] = test: Antiinflammatory activity against carrageenan-induced paw oedema in mouse at 10 mg/kg, ip treated 30 mins before carrageenan challenge measured after 5 hrs by plethysmometry analysis; assay type: functional; settings: route intraperitoneal
Mus musculus [9] = test: Antiinflammatory activity in mouse assessed as neutrophil population in peritoneal exudate during carrageenan-induced inflammation at 10 mg/kg, ip administered 30 mins before carrageenan challenge measured after 4 hrs by myeloperoxidase activity assay; assay type: functional; settings: route intraperitoneal
Mus musculus [10] = test: Antiinflammatory activity against carrageenan-induced paw oedema in mouse at 10 mg/kg, ip treated 30 mins before carrageenan challenge measured after 1 hr by plethysmometry analysis; assay type: functional; settings: route intraperitoneal
Mus musculus [11] = test: Neurotoxicity in mouse assessed as muscular impairment at 1 mg/kg, ip administered 15 mins before test measured after 60 seconds by rotarod test; assay type: toxicity, organism-based; parameters: dose 1 mg/kg, route intraperitoneal; settings: in vivo, 0.25 h
[12] = Cytotoxicity against mouse RAW264.7 cells assessed as cell viability at 10 uM after 24 hrs by MTT assay; assay type: cell-based; settings: read-out: Activity
Mus musculus [13] = test: Antiinflammatory activity in mouse assessed as neutrophil population in peritoneal exudate during carrageenan-induced inflammation at 0.5 mg/kg, sc administered 4 hrs before carrageenan challenge measured after 4 hrs by myeloperoxidase activity assay; assay type: functional; settings: route subcutaneous
Mus musculus [14] = test: Antiinflammatory activity against bradykinin-induced paw oedema in mouse at 10 mg/kg, ip treated 30 mins before bradykinin challenge measured after 120 mins by plethysmometry analysis; assay type: functional; settings: route intraperitoneal
[15] = Cytotoxicity against mouse RAW264.7 cells assessed as cell viability at 1 uM after 24 hrs by MTT assay; assay type: cell-based; settings: read-out: Activity
Mus musculus [16] = test: Antiinflammatory activity in ip dosed mouse assessed as inhibition of acetic acid-induced abdominal constriction administered 30 mins before acetic acid challenge; assay type: functional, Abdomen
RAW264.7 [17] = test: Reduction in LPS-induced nitric oxide production in mouse RAW264.7 cells at 1 uM after 24 hrs by Griess assay (Rvb=74.2 +/- 1.6 uM); assay type: functional
Mus musculus [18] = test: Antiinflammatory activity against bradykinin-induced paw oedema in mouse at 10 mg/kg, ip treated 30 mins before bradykinin challenge measured after 30 mins by plethysmometry analysis; assay type: functional; settings: route intraperitoneal
RAW264.7 [19] = test: Reduction in LPS-induced nitric oxide production in mouse RAW264.7 cells at 3 uM after 24 hrs by Griess assay (Rvb=74.2 +/- 1.6 uM); assay type: functional
RAW264.7 [20] = test: Reduction in LPS-induced nitric oxide production in mouse RAW264.7 cells at 10 uM after 24 hrs by Griess assay (Rvb=74.2 +/- 1.6 uM); assay type: functional
[21] = Cytotoxicity against mouse RAW264.7 cells assessed as cell viability at 3 uM after 24 hrs by MTT assay; assay type: cell-based; settings: read-out: Activity
RAW264.7 [22] = test: Antiinflammatory activity in mouse RAW264.7 cells assessed as inhibition of LPS-induced PGE2 production at 10 uM after 24 hrs by enzyme immunoassay; assay type: functional; settings: RAW264.7, 24 h
Mus musculus [23] = test: Antiinflammatory activity in mouse peritoneal cavity assessed as reduction in cell migration during carrageenan-induced inflammation at 0.1 mg/kg, ip administered 30 mins before carrageenan challenge measured after 4 hrs; assay type: functional, organism-based; parameters: dose 0.1 mg/kg
Mus musculus [24] = test: Antiinflammatory activity in mouse assessed as neutrophil population in peritoneal exudate during carrageenan-induced inflammation at 1 mg/kg, ip administered 30 mins before carrageenan challenge measured after 4 hrs by myeloperoxidase activity assay; assay type: functional; settings: route intraperitoneal
Mus musculus [25] = test: Antiinflammatory activity against bradykinin-induced paw oedema in mouse at 10 mg/kg, ip treated 30 mins before bradykinin challenge measured after 60 mins by plethysmometry analysis; assay type: functional; settings: route intraperitoneal
Mus musculus [26] = test: Antiinflammatory activity in mouse assessed as reduction in total cell count in peritoneal exudate during carrageenan-induced inflammation at 0.5 mg/kg, sc administered 4 hrs before carrageenan challenge measured after 4 hrs; assay type: functional; parameters: scale not given: the % may be the effect or the level left; settings: route subcutaneous
Mus musculus [27] = test: Antinociceptive activity against formalin-induced nociception in mouse assessed as inhibition of paw licking time at 10 mg/kg, ip administered 30 mins before formalin challenge measured after 30 mins relative to control; assay type: functional; settings: route intraperitoneal
Mus musculus [28] = test: Antiinflammatory activity against carrageenan-induced paw oedema in mouse at 10 mg/kg, ip treated 30 mins before carrageenan challenge measured after 2 hrs by plethysmometry analysis; assay type: functional; settings: route intraperitoneal
Mus musculus [29] = test: Antinociceptive activity against formalin-induced nociception in ip dosed mouse assessed as inhibition of paw licking time administered 30 mins before formalin challenge measured after 30 mins; assay type: functional, organism-based
Mus musculus [30] = test: Antiinflammatory activity in mouse peritoneal cavity assessed as reduction in cell migration during carrageenan-induced inflammation at 1 mg/kg, ip administered 30 mins before carrageenan challenge measured after 4 hrs; assay type: functional, organism-based; parameters: dose 1 mg/kg
Mus musculus [31] = test: Neurotoxicity in mouse assessed as muscular impairment at 10 mg/kg, ip administered 15 mins before test measured after 60 seconds by rotarod test; assay type: toxicity, organism-based; parameters: dose 10 mg/kg, route intraperitoneal; settings: in vivo, 0.25 h
Mus musculus [32] = test: Antiinflammatory activity against bradykinin-induced paw oedema in mouse at 10 mg/kg, ip treated 30 mins before bradykinin challenge measured after 15 mins by plethysmometry analysis; assay type: functional; settings: route intraperitoneal
Mus musculus [33] = test: Antiinflammatory activity against bradykinin-induced paw oedema in mouse at 10 mg/kg, ip treated 30 mins before bradykinin challenge measured after 240 mins by plethysmometry analysis; assay type: functional; settings: route intraperitoneal
RAW264.7 [34] = test: Antiinflammatory activity in mouse RAW264.7 cells assessed as inhibition of LPS-induced PGE2 production at 3 uM after 24 hrs by enzyme immunoassay; assay type: functional; settings: RAW264.7, 24 h

In the case of `COc1cc(/C=C/C(=O)/C=C/c2ccc(OC(C)=O)c(OC)c2)ccc1OC(C)=O`, the inhibition in vivo at 10 mg/kg (Mus musculus [1]) is reported as 6.57%, the Activity (Mus musculus [2]) is reported as “Non-toxic” and the Activity (Mus musculus [3]) is reported as “Non-toxic”. For the same compound, the inhibition at 100 µM (RAW264.7 [4]) was 76%, the inhibition in vivo at 10 mg/kg (Mus musculus [5]) was 8.67% and the Activity (Mus musculus [6]) was 98%. The Activity (Mus musculus [7]) was 50%, the inhibition in vivo at 10 mg/kg (Mus musculus [8]) was 8.57% and the Activity (Mus musculus [9]) was 98%. The inhibition in vivo at 10 mg/kg (Mus musculus [10]) was 10.8%, the Activity (Mus musculus [11]) was “Non-toxic” and the viability at 24 h, 10 µM [12] was over 90%. The Activity (Mus musculus [13]) was 98%, the inhibition in vivo at 10 mg/kg (Mus musculus [14]) was 2.5% and the viability at 24 h, 1 µM [15] was over 90%. For the same compound, the “inhibition (INH)” value (Mus musculus [16]) was 82.5%, the ED50 (Mus musculus [16]; Mus musculus, Abdomen, ip) was 7.6 mg/kg and the Activity (RAW264.7 [17]) was 49 µM. It also gave an inhibition in vivo at 10 mg/kg (Mus musculus [18]) of 3%, an Activity (RAW264.7 [19]) of 20 µM and an Activity (RAW264.7 [20]) of 3 µM. For the same compound, the viability at 24 h, 3 µM [21] was over 90%, the inhibition at 10 µM (RAW264.7 [22]) was 71% and the Activity (Mus musculus [23]) was “inactive”. The Activity (Mus musculus [24]) was 98%, the inhibition in vivo at 10 mg/kg (Mus musculus [25]) was 2.8% and the Activity (Mus musculus [26]) was 20%. For the same compound, the inhibition in vivo at 10 mg/kg (Mus musculus [27]) was 86%, the inhibition in vivo at 10 mg/kg (Mus musculus [28]) was 12.1% and the EC50 (Mus musculus [29]) was 5.8 mg/kg. For the same compound, the Activity (Mus musculus [30]) was “inactive”, the Activity (Mus musculus [31]) was “Non-toxic” and the inhibition in vivo at 10 mg/kg (Mus musculus [32]) was 4.25%. The inhibition in vivo at 10 mg/kg (Mus musculus [33]) was 2.18% and the inhibition at 3 µM (RAW264.7 [34]) was 48%.
